# Results reported in patent publication US20100267706A1, “Compounds, Compositions and Methods Comprising Pyridazine Derivatives” (Institute for OneWorld Health, priority 2009, published 2010).
# Target: T1, CFTR (Homo sapiens, UniProt P13569)
# T1 construct: host or cells: Human colonic T84 cells
# Assay: T84 assay (FLIPR membrane potential, forskolin/IBMX-stimulated CFTR channel activity)
# Assay type: cell-based
# Conditions: Human colonic T84 cells; average of at least 2 runs unless annotated n = 1
# Experimental: (§1) For example, Human colonic T84 cells can be acquired from the European Collection of Cell Cultures (ECACC) and grown in standard culture conditions as described by the supplier. On the day before assay 25,000 T84 cells per well are plated into standard black walled, clear bottom 384-well assay plates in standard growth medium consisting of DMEM:F12 with 10% FBS and incubated overnight. On the day of the assay the plates are washed using a standard assay buffer (HBSS with 10 mM Hepes) and incubated for 15 minutes in serum free cell culture medium before the addition of a commercially available membrane potential sensitive fluorescent dye (FLIPR Red membrane potential dye, Molecular Devices Corporation). T84 cells are incubated with the FLIPR Red membrane potential dye for 45 minutes in the presence and absence of test compound before being transferred to a commercially available fluorescence imaging plate reader (FLIPR384, Molecular Devices Corporation). Fluorescence levels are monitored continuously every second for 150 seconds; after an initial 10 second baseline, CFTR channel activity is stimulated through the addition of 10 μM forskolin in the presence of 100 μM of the phosphodiesterase inhibitor iso-butyl-methylxanthine (IBMX). Addition of the forskolin leads to the activation of intracellular adenylyl cylase 1, elevating cAMP levels and results in the phosphorylation and opening of CFTR anion channels. CFTR channel opening causes chloride ion efflux and subsequent depolarization of the cells, which is measured by an increase in fluorescence. CFTR inhibitor compounds prevent cell depolarization and the associated increase in fluorescence.
# as §1, with “Human colonic” for “For example, Human colonic”, “T84 cells are acquired from” for “T84 cells can be acquired from”, “(ECACC) and are grown in” for “(ECACC) and grown in”
# T1 sequence (P13569 whole entry): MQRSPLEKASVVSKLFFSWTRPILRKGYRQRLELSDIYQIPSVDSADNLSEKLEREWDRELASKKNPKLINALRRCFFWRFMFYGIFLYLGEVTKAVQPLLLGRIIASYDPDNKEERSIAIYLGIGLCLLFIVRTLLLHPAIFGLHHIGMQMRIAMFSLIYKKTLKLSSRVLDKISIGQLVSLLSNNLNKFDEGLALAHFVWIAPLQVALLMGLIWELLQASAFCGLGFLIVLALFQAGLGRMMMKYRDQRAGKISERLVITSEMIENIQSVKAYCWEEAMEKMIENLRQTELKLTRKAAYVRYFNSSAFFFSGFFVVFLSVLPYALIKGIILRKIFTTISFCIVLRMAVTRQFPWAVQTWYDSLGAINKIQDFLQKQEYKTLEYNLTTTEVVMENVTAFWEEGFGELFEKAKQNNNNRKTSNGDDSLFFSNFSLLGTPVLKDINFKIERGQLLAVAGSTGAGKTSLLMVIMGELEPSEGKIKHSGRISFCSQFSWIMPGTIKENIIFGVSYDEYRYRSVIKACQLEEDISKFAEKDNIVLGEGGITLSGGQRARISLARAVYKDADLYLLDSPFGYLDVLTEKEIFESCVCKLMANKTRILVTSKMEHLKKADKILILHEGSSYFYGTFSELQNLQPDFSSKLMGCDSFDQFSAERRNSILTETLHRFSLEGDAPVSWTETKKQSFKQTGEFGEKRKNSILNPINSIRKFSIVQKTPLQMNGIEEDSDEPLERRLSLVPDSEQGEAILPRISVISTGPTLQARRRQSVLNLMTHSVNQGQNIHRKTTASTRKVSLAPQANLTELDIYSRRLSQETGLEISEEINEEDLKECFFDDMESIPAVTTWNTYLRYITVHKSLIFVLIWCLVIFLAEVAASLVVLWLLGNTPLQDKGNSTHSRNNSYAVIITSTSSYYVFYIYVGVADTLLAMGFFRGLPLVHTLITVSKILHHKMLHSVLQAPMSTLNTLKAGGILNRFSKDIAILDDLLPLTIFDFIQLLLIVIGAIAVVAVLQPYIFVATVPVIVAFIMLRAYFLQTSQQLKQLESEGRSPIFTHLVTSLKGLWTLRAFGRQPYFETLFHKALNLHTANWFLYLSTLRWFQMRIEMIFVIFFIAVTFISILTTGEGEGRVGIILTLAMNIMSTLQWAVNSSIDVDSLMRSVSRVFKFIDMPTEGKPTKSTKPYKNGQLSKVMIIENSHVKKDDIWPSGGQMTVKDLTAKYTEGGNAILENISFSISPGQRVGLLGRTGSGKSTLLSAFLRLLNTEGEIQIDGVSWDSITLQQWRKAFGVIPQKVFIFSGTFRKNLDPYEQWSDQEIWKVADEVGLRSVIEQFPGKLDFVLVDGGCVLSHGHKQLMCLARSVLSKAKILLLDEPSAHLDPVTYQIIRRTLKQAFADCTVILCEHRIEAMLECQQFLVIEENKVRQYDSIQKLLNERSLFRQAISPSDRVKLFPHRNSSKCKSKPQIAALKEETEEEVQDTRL
row,IC50,Structure (SMILES)
1,10.3 µM,"O=C(c1cc(-c2cc(Cl)c(O)c(Cl)c2)nnc1OCCc1ccc(Cl)cc1)N(CCO)Cc1ccccc1Cl [Compound 12, N-(2-chlorobenzyl)-3-(4-chlorophenethoxy)-6-(3,5-dichloro-4-hydroxyphenyl)-N-(2-hydroxyethyl)pyridazine-4-carboxamide]"
2,28.6 µM,"CCCN(CCO)C(=O)c1cc(-c2cc(Cl)c(O)c(Cl)c2)nnc1OCCc1ccc(Cl)cc1 [Compound 13, 3-(4-chlorophenethoxy)-6-(3,5-dichloro-4-hydroxyphenyl)-N-(2-hydroxyethyl)-N-propylpyridazine-4-carboxamide]"
3,9.45 µM,"Oc1c(Cl)cc(-c2cc(N3CCN(Cc4ccc(OCCN5CCOCC5)cc4)CC3)c(OCCc3ccc(Cl)cc3)nn2)cc1Cl [Compound 14, 2,6-dichloro-4-(6-(4-chlorophenethoxy)-5-(4-(4-(2-morpholinoethoxy)benzyl)piperazin-1-yl)pyridazin-3-yl)phenol]"
4,3.05 µM,"CN(C)CCOc1ccc(CN2CCN(c3cc(-c4cc(Cl)c(O)c(Cl)c4)nnc3OCCc3ccc(Cl)cc3)CC2)cc1 [Compound 15, 2,6-dichloro-4-(6-(4-chlorophenethoxy)-5-(4-(4-(2-(dimethylamino)ethoxy)benzyl)piperazin-1-yl)pyridazin-3-yl)phenol]"
5,9.85 µM,"CN(C)CCCOc1cccc(CN2CCN(c3cc(-c4cc(Cl)c(O)c(Cl)c4)nnc3OCCc3ccc(Cl)cc3)CC2)c1 [Compound 16, 2,6-dichloro-4-(6-(4-chlorophenethoxy)-5-(4-(3-(3-(dimethylamino)propoxy)benzyl)piperazin-1-yl)pyridazin-3-yl)phenol]"
6,3.8 µM,"CN(C)CCCOc1ccccc1CN1CCN(c2cc(-c3cc(Cl)c(O)c(Cl)c3)nnc2OCCc2ccc(Cl)cc2)CC1 [Compound 17, 2,6-dichloro-4-(6-(4-chlorophenethoxy)-5-(4-(2-(3-(dimethylamino)propoxy)benzyl)piperazin-1-yl)pyridazin-3-yl)phenol]"
7,7.5 µM,"Oc1c(Cl)cc(-c2cc(N3CCN(Cc4ccc(OCCCN5CCC(F)(F)CC5)cc4)CC3)c(OCCc3ccc(Cl)cc3)nn2)cc1Cl [Compound 18, 2,6-dichloro-4-(6-(4-chlorophenethoxy)-5-(4-(4-(3-(4,4-difluoropiperidin-1-yl)propoxy)benzyl)piperazin-1-yl)pyridazin-3-yl)phenol]"
8,17 µM,"Oc1c(Cl)cc(-c2cc(N3CCN(Cc4ccc(OCCCN5CCSCC5)cc4)CC3)c(OCCc3ccc(Cl)cc3)nn2)cc1Cl [Compound 19, 2,6-dichloro-4-(6-(4-chlorophenethoxy)-5-(4-(4-(3-thiomorpholinopropoxy)benzyl)piperazin-1-yl)pyridazin-3-yl)phenol]"
9,12 µM,"CCN(Cc1ccccc1)C(=O)c1cc(-c2cc(Cl)c(O)c(Cl)c2)nnc1N(CC)Cc1ccccc1 [Compound 20, N-benzyl-3-(benzyl(ethyl)amino)-6-(3,5-dichloro-4-hydroxyphenyl)-N-ethylpyridazine-4-carboxamide]"
10,7.33 µM,"NC(=O)C1CCN(CCCOc2ccc(CN3CCN(c4cc(-c5cc(Cl)c(O)c(Cl)c5)nnc4OCCc4ccc(Cl)cc4)CC3)cc2)CC1 [Compound 21, 1-(3-(4-((4-(3-(4-chlorophenethoxy)-6-(3,5-dichloro-4-hydroxyphenyl)pyridazin-4-yl)piperazin-1-yl)methyl)phenoxy)propyl)piperidine-4-carboxamide]"
11,13.2 µM,"CN1CCN(CCOc2ccc(CN3CCN(c4cc(-c5cc(Cl)c(O)c(Cl)c5)nnc4OCCc4ccc(Cl)cc4)CC3)cc2)CC1 [Compound 22, 2,6-dichloro-4-(6-(4-chlorophenethoxy)-5-(4-(4-(2-(4-methylpiperazin-1-yl)ethoxy)benzyl)piperazin-1-yl)pyridazin-3-yl)phenol]"
12,2.33 µM,"COc1cc(CN2CCN(c3cc(-c4cc(Cl)c(O)c(Cl)c4)nnc3OCCc3ccc(Cl)cc3)CC2)ccc1OCCN1CCN(C)CC1 [Compound 23, 2,6-dichloro-4-(6-(4-chlorophenethoxy)-5-(4-(3-methoxy-4-(2-(4-methylpiperazin-1-yl)ethoxy)benzyl)piperazin-1-yl)pyridazin-3-yl)phenol]"

# Continued, molecule first:
row,Structure (SMILES),IC50
1,"Oc1c(Cl)cc(-c2cc(N3CCN(Cc4cccc(C(F)(F)F)c4)CC3)c(OCCc3ccc(Cl)cc3)nn2)cc1Cl [Compound 1, 2,6-dichloro-4-(6-(4-chlorophenethoxy)-5-(4-(3-(trifluoromethyl)benzyl)piperazin-1-yl)pyridazin-3-yl)phenol]",27 µM
2,"CN(C)CCCOc1ccc(CN2CCN(c3cc(-c4cc(Cl)c(O)c(Cl)c4)nnc3OCCc3ccc(Cl)cc3)CC2)cc1 [Compound 2, 2,6-Dichloro-4-(6-(4-chlorophenethoxy)-5-(4-(4-(3-(dimethylamino)propoxy)benzyl)piperazin-1-yl)pyridazin-3-yl)phenol]",1.8 µM
3,"O=C(Cc1ccccn1)N1CCN(c2cc(-c3cc(Cl)c(O)c(Cl)c3)nnc2OCCc2ccc(Cl)cc2)CC1 [Compound 3, 1-(4-(3-(4-Chlorophenethoxy)-6-(3,5-dichloro-4-hydroxyphenyl)pyridazin-4-yl)piperazin-1-yl)-2-(pyridin-2-yl)ethanone]",18.1 µM
4,"CS(=O)(=O)Nc1ccc(CNC(=O)c2cc(-c3cc(Cl)c(O)c(Cl)c3)nnc2OCCc2ccc(Cl)cc2)cc1 [Compound 4, 3-(4-Chlorophenethoxy)-6-(3,5-dichloro-4-hydroxyphenyl)-N-(4-(methylsulfonamido)benzyl)pyridazine-4-carboxamide]",17.5 µM
5,"CCN1CCN(c2cc(-c3cc(Cl)c(O)c(Cl)c3)nnc2OCCc2ccc(Cl)cc2)CC1 [Compound 5, 2,6-dichloro-4-(6-(4-chlorophenethoxy)-5-(4-ethylpiperazin-1-yl)pyridazin-3-yl)phenol]",15.8 µM
6,"O=C(NCc1cccc(C(F)(F)F)c1)c1cc(-c2cc(Cl)c(O)c(Cl)c2)nnc1OCCc1ccc(Cl)cc1 [Compound 6, 3-(4-chlorophenethoxy)-6-(3,5-dichloro-4-hydroxyphenyl)-N-(3-(trifluoromethyl)benzyl)pyridazine-4-carboxamide]",24.7 µM
7,"O=C(NCc1ccc(C(F)(F)F)cc1)c1cc(-c2cc(Cl)c(O)c(Cl)c2)nnc1OCCc1ccc(Cl)cc1 [Compound 7, 3-(4-chlorophenethoxy)-6-(3,5-dichloro-4-hydroxyphenyl)-N-(4-(trifluoromethyl)benzyl)pyridazine-4-carboxamide]",16.5 µM
8,"O=C(NCc1cc(F)cc(F)c1)c1cc(-c2cc(Cl)c(O)c(Cl)c2)nnc1OCCc1ccc(Cl)cc1 [Compound 8, 3-(4-chlorophenethoxy)-6-(3,5-dichloro-4-hydroxyphenyl)-N-(3,5-difluorobenzyl)pyridazine-4-carboxamide]",13 µM
9,"O=C(NCc1cc(F)c(F)c(F)c1)c1cc(-c2cc(Cl)c(O)c(Cl)c2)nnc1OCCc1ccc(Cl)cc1 [Compound 9, 3-(4-chlorophenethoxy)-6-(3,5-dichloro-4-hydroxyphenyl)-N-(3,4,5-trifluorobenzyl)pyridazine-4-carboxamide]",8.06 µM
10,"O=C(c1cc(-c2cc(Cl)c(O)c(Cl)c2)nnc1OCCc1ccc(Cl)cc1)N(CCO)Cc1ccc(F)cc1 [Compound 10, 3-(4-chlorophenethoxy)-6-(3,5-dichloro-4-hydroxyphenyl)-N-(4-fluorobenzyl)-N-(2-hydroxyethyl)pyridazine-4-carboxamide]",12.1 µM
